Measured values as given in ChEMBL document CHEMBL1139205, “Newer tetracycline derivatives: synthesis, anti-HIV, antimycobacterial activities and inhibition of HIV-1 integrase” (Bioorg Med Chem Lett, 2007).
In brackets after ≈: the same amount, converted by molar mass.

Columns and labels:
[1] = biological target: T1, Human immunodeficiency virus type 1 integrase (Human immunodeficiency virus 1, UniProt Q7ZJM1); experiment: Inhibition of HIV1 recombinant integrase 3'-processing activity
[2] = test system: Mycobacterium tuberculosis; experiment: Antimycobacterial activity against Mycobacterium tuberculosis by agar dilution method; format: functional
[3] = Cytotoxicity against CEM cells after 5 days by MTT method; format: cell-based; conditions: human, CCRF-CEM (CEM) cells
[4] = biological target: T1, Human immunodeficiency virus type 1 integrase; experiment: Inhibition of HIV1 recombinant integrase strand transfer activity
[5] = test system: Human immunodeficiency virus 1; experiment: Antiviral activity against HIV1 3B in CEM cells assessed as inhibition of viral-induced cytopathicity; format: functional, organism-based; conditions: Human immunodeficiency virus 1, 3B, CCRF-CEM
[6] = Selectivity index, ratio of CC50 for CEM cells to EC50 for HIV1 3B; format: functional, CCRF-CEM

T1 sequence (Q7ZJM1 whole entry): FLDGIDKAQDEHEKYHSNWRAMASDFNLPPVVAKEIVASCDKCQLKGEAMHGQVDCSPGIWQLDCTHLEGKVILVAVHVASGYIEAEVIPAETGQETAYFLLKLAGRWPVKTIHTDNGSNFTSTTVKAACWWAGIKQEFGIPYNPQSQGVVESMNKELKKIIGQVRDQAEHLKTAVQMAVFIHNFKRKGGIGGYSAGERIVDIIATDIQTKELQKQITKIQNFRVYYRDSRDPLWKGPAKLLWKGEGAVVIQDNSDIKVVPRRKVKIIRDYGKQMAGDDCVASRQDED

Compound	IC50 [1] [µM]	MIC [2] [µg/mL]	CC50 at 120 h [3] [µM]	IC50 [4] [µM]	EC50 [5] [µM]	Ratio CC50/EC50 [6]
CN(C)[C@@H]1C(O)=C(C(=O)NCN2CCN(c3cc4c(cc3F)c(=O)c(C(=O)O)cn4C3CC3)CC2)C(=O)[C@@]2(O)C(O)=C3C(=O)c4c(O)cccc4[C@@](C)(O)[C@H]3C[C@@H]12	20	0.39 (≈ 0.495 µM)	141	12	8.4	
CCn1cc(C(=O)O)c(=O)c2cc(F)c(N3CCN(CNC(=O)C4=C(O)[C@@H](N(C)C)[C@@H]5[C@@H](O)[C@H]6C(=C(O)[C@]5(O)C4=O)C(=O)c4c(O)cccc4[C@@]6(C)O)CC3)cc21	21	0.78 (≈ 0.985 µM)	40	12	12.2	
CCn1cc(C(=O)O)c(=O)c2cc(F)c(N3CCN(CNC(=O)C4=C(O)[C@@H](N(C)C)[C@@H]5[C@@H](O)[C@H]6C(=C(O)[C@]5(O)C4=O)C(=O)c4c(O)cccc4[C@@]6(C)O)C(C)C3)c(F)c21 (stereo not given in full)		0.78 (≈ 0.947 µM)	37.4		15.1	
CCn1cc(C(=O)O)c(=O)c2cc(F)c(N3CCNC(C)C3)c(F)c21 (stereo not given) [LOMEFLOXACIN]		6.25 (≈ 17.8 µM)				
COc1c(N2CCN(CNC(=O)C3=C(O)[C@@H](N(C)C)[C@@H]4C[C@@H]5Cc6c(N(C)C)ccc(O)c6C(=O)C5=C(O)[C@]4(O)C3=O)C(C)C2)c(F)cc2c(=O)c(C(=O)O)cn(C3CC3)c12 (stereo not given in full)		0.2 (≈ 0.237 µM)	126		> 126	
CN(C)c1ccc(O)c2c1C[C@H]1C[C@H]3[C@H](N(C)C)C(O)=C(C(=O)NCN4CCN(c5cc6c(cc5F)c(=O)c(C(=O)O)cn6C5CC5)CC4)C(=O)[C@@]3(O)C(O)=C1C2=O		0.78 (≈ 0.974 µM)	120		> 120	
CN(C)[C@@H]1C(O)=C(C(N)=O)C(=O)[C@@]2(O)C(O)=C3C(=O)c4c(O)cccc4[C@@](C)(O)[C@H]3C[C@@H]12 [TETRACYCLINE]	204	> 6.25	40.5	188	> 40.5	
COc1c(N2CCN(CNC(=O)C3=C(O)[C@@H](N(C)C)[C@@H]4[C@@H](O)[C@H]5C(=C(O)[C@]4(O)C3=O)C(=O)c3c(O)cccc3[C@@]5(C)O)C(C)C2)c(F)cc2c(=O)c(C(=O)O)cn(C3CC3)c12 (stereo not given in full)	28	0.39 (≈ 0.46 µM)	28.9	13.5	> 28.9	
CCn1cc(C(=O)O)c(=O)c2cc(F)c(N3CCN(CNC(=O)C4=C(O)[C@@H](N(C)C)[C@@H]5C[C@@H]6Cc7c(N(C)C)ccc(O)c7C(=O)C6=C(O)[C@]5(O)C4=O)CC3)cc21		0.78 (≈ 0.989 µM)	130		> 130	
CCn1cc(C(=O)O)c(=O)c2cc(F)c(N3CCN(CNC(=O)C4=C(O)[C@@H](N(C)C)[C@@H]5C[C@H]6C(=C(O)[C@]5(O)C4=O)C(=O)c4c(O)cccc4[C@@]6(C)O)C(C)C3)c(F)c21 (stereo not given in full)	65	1.56 (≈ 1.93 µM)	> 200	44	7.58	
CCn1cc(C(=O)O)c(=O)c2cc(F)c(N3CCN(CNC(=O)C4=C(O)[C@@H](N(C)C)[C@@H]5C[C@H]6C(=C(O)[C@]5(O)C4=O)C(=O)c4c(O)cccc4[C@@]6(C)O)CC3)cc21	20	0.78 (≈ 1.01 µM)	131	13	14.6	
CN(C)[C@@H]1C(O)=C(C(=O)NCN2CCN(c3cc4c(cc3F)c(=O)c(C(=O)O)cn4C3CC3)CC2)C(=O)[C@@]2(O)C(O)=C3C(=O)c4c(O)cccc4[C@@](C)(O)[C@H]3[C@H](O)[C@@H]12	38	0.39 (≈ 0.485 µM)	17.7	17	> 17.7	
CN(C)[C@@H]1C(O)=C(C(=O)NCN2CCCC2)C(=O)[C@@]2(O)C(O)=C3C(=O)c4c(O)cccc4[C@@](C)(O)[C@H]3C[C@@H]12 [ROLITETRACYCLINE]	28	> 6.25	45.5	34	> 45.5	
CN(C)c1ccc(O)c2c1C[C@H]1C[C@H]3[C@H](N(C)C)C(O)=C(C(N)=O)C(=O)[C@@]3(O)C(O)=C1C2=O [MINOCYCLINE]		> 6.25	52.1		> 52.1	
CCn1cc(C(=O)O)c(=O)c2cc(F)c(N3CCN(CNC(=O)C4=C(O)[C@@H](N(C)C)[C@@H]5C[C@@H]6Cc7c(N(C)C)ccc(O)c7C(=O)C6=C(O)[C@]5(O)C4=O)C(C)C3)c(F)c21 (stereo not given in full)	20	0.2 (≈ 0.244 µM)	> 200	18	5.2	>38
COc1c(N2CCN(CNC(=O)C3=C(O)[C@@H](N(C)C)[C@@H]4C[C@H]5C(=C(O)[C@]4(O)C3=O)C(=O)c3c(O)cccc3[C@@]5(C)O)C(C)C2)c(F)cc2c(=O)c(C(=O)O)cn(C3CC3)c12 (stereo not given in full)		0.2 (≈ 0.24 µM)	140		20.2	
